Experimental data published in ChEMBL document CHEMBL5131511, “Design of artificial α-helical peptides targeting both gp41 deep pocket and subpocket as potent HIV-1 fusion inhibitors” (Eur J Med Chem, 2022).
pEC50: −log10 of the molar value. Where a SMILES comes first, the peptide text is derived from it. [ ]: non-standard residue; d: D form. The star is where a group is joined. O(cholesteryl) = CC(C)CCC[C@@H](C)[C@H]1CC[C@H]2[C@@H]3CC=C4C[C@@H](O*)CC[C@]4(C)[C@H]3CC[C@]12C; PEG8 = NCCOCCOCCOCCOCCOCCOCCOCCOCCC(=O)O

How the values were obtained:
[1] = tested on: Human immunodeficiency virus 1; test: Antiviral activity against HIV-1 IIIB assessed as inhibition of viral replication measured after 4 days by ELISA; type: functional, organism-based; conditions: Human immunodeficiency virus 1, IIIB, 96 h
[2] = tested on: Human immunodeficiency virus 1; test: Antiviral activity against T20-sensitive HIV-1 D36G assessed as inhibition of viral replication measured after 4 days by ELISA; type: functional, organism-based
[3] = tested on: Human immunodeficiency virus 1; test: Antiviral activity against T20-resistant HIV-1 V38E/N42S assessed as inhibition of viral replication measured after 4 days by ELISA; type: functional, organism-based
[4] = tested on: Human immunodeficiency virus 1; test: Antiviral activity against T20-resistant HIV-1 V38A/N42T assessed as inhibition of viral replication measured after 4 days by ELISA; type: functional, organism-based
[5] = Selectivity ratio of EC50 for antiviral activity against T20-resistant HIV-1 V38E/N42S to EC50 for antiviral activity against T20-sensitive HIV-1 D36G; type: functional
[6] = Selectivity ratio of EC50 for antiviral activity against T20-resistant HIV-1 V38A/N42T to EC50 for antiviral activity against T20-sensitive HIV-1 D36G; type: functional
[7] = tested on: Human immunodeficiency virus 1; test: Antiviral activity against HIV-1 IIIB (B, X4) assessed as inhibition of viral replication measured after 4 days by ELISA; type: functional, organism-based; conditions: Human immunodeficiency virus 1, IIIB (B, X4), 96 h

| pEC50 [1] | pEC50 [7] | Molecule | further results |
| --- | --- | --- | --- |
|  | 7.39 | Ac-QEESIKKWEEWDKKIEELIKKSEELIKKIEEQIKK-NH2 |  |
| < 6.30 |  | CC[C@H](C)[C@H](NC(=O)[C@H](CO)NC(=O)[C@H](CCC(=O)O)NC(=O)[C@H](CCC(=O)O)NC(=O)[C@H](CCC(N)=O)NC(C)=O)C(=O)N[C@@H](CCCCN)C(=O)N[C@@H](CCCCN)C(=O)N[C@@H](Cc1c[nH]c2ccccc12)C(=O)N[C@@H](CCC(=O)O)C(=O)N[C@@H](CCC(=O)O)C(=O)N[C@@H](Cc1c[nH]c2ccccc12)C(=O)N[C@@H](CO)C(=O)N[C@@H](CCCCN)C(=O)N[C@@H](CCCCN)C(=O)N[C@H](C(=O)N[C@@H](CCC(=O)O)C(=O)N[C@@H](CCC(=O)O)C(=O)N[C@@H](CC(C)C)C(=O)N[C@H](C(=O)N[C@@H](CCCCN)C(=O)N[C@@H](CCCCN)C(=O)N[C@@H](CO)C(=O)N[C@@H](CCC(=O)O)C(=O)N[C@@H](CCC(=O)O)C(=O)N[C@@H](CC(C)C)C(=O)N[C@H](C(=O)N[C@@H](CCCCN)C(=O)N[C@@H](CCCCN)C(=O)N[C@H](C(=O)N[C@@H](CCC(=O)O)C(=O)N[C@@H](CCC(=O)O)C(=O)N[C@@H](CCC(N)=O)C(=O)N[C@H](C(=O)N[C@@H](CCCCN)C(=O)N[C@@H](CCCCN)C(=O)N[C@@H](CS)C(=O)O[C@H]1CC[C@@]2(C)C(=CC[C@H]3[C@@H]4CC[C@H]([C@H](C)CCCC(C)C)[C@@]4(C)CC[C@@H]32)C1)[C@@H](C)CC)[C@@H](C)CC)[C@@H](C)CC)[C@@H](C)CC)[C@@H](C)CC (Ac-QEESIKKWEEWSKKIEELIKKSEELIKKIEEQIKKC-{O(cholesteryl)}) |  |
|  | 7.16 | Ac-QEENNKKWEEWDKKIEELIKKSEELIKKIEEQIKK-NH2 |  |

The next lines start with the molecule.

| Molecule | pEC50 [1] | pEC50 [7] | further results |
| --- | --- | --- | --- |
| enfuvirtide | 8.08 |  | pEC50 [2]: 7.39; pEC50 [3]: < 6.00; pEC50 [4]: 6.16; Ratio EC50 [5]: >24; Ratio EC50 [6]: 17 |
| Ac-QIWNNMTWEEWDKKIEELIKKSEELIKKIEEQIKK-NH2 |  | 7.44 |  |
| CC[C@H](C)[C@H](NC(=O)[C@H](CCC(N)=O)NC(=O)[C@H](CCC(=O)O)NC(=O)[C@H](CCC(=O)O)NC(=O)[C@@H](NC(=O)[C@H](CCCCN)NC(=O)[C@H](CCCCN)NC(=O)[C@@H](NC(=O)[C@H](CC(C)C)NC(=O)[C@H](CCC(=O)O)NC(=O)[C@H](CCC(=O)O)NC(=O)[C@H](CO)NC(=O)[C@H](CCCCN)NC(=O)[C@H](CCCCN)NC(=O)[C@@H](NC(=O)[C@H](CC(C)C)NC(=O)[C@H](CCC(=O)O)NC(=O)[C@H](CCC(=O)O)NC(=O)[C@@H](NC(=O)[C@H](CCCCN)NC(=O)[C@H](CCCCN)NC(=O)[C@H](CO)NC(=O)[C@H](Cc1c[nH]c2ccccc12)NC(=O)[C@H](CCC(=O)O)NC(=O)[C@H](CCC(=O)O)NC(=O)[C@H](Cc1c[nH]c2ccccc12)NC(=O)[C@H](CCCCN)NC(=O)[C@H](CCCCN)NC(=O)[C@@H](NC(=O)[C@H](CO)NC(=O)[C@H](CCC(=O)O)NC(=O)[C@H](CCC(=O)O)NC(=O)[C@H](CCC(N)=O)NC(C)=O)[C@@H](C)CC)[C@@H](C)CC)[C@@H](C)CC)[C@@H](C)CC)[C@@H](C)CC)C(=O)N[C@@H](CCCCN)C(=O)N[C@@H](CCCCN)C(=O)NCCOCCOCCOCCOCCOCCOCCOCCOCCC(=O)N[C@@H](CS)C(=O)O[C@H]1CC[C@@]2(C)C(=CC[C@H]3[C@@H]4CC[C@H]([C@H](C)CCCC(C)C)[C@@]4(C)CC[C@@H]32)C1 (Ac-QEESIKKWEEWSKKIEELIKKSEELIKKIEEQIKK[PEG8]C-{O(cholesteryl)}) | 7.67 |  |  |
